Several values for one entry are separate records, joined by “and”; a condition that tells them apart may be missing. Equal values may be shown once. Marks after values point to notes of the source that are not given here.
Experiments:
[1] = test system: inflammation induced by phorbol 12-myristate-13-acetate (PMA); test: Topical anti-inflammatory activity: ear inflammation induced by PMA in mice; type: in vivo; parameters: RE / RE Average: unit not given here; conditions: for LE Average: left ear (non treated); for LE Average / RE Average: group average; for RE Average: right ear (treated); for LE: weight of 6 mm portion of left ear (non treated); for LE / RE: individual mice; for RE: weight of 6 mm portion of right ear (treated)
Experimental: The topical anti-inflammatory activity of p-nitrolophine has been analyzed in this study since erythema is a inflammatory process. Specifically, the inhibition of inflammation induced by phorbol 12-myristate-13-acetate (PMA) was evaluated and compared with an anti-inflammatory product of reference (indometacin). 37 mice were divided into the following groups: positive control group (PMA 0.5 mg); negative control group (indometacin 0.5 mg); treated groups (0.5 mg and 1 mg of p-nitrolophine). All the solutions were prepared using acetone (ppa) as vehicle. 20 µL of solution of 25 mg/mL of phorbol 12-myristate-13-acetate (PMA) [Fluka cod 79346] (10 µL in each face) was administered in the right ear of each mouse. Immediately after administering the PMA, nothing more was administered into the positive control group; 20 µL of the solution of 25 mg/mL of indometacin was administered to the negative control group, and 20 µL of the solution of 25 or 50 mg/mL of 4-nitrolophine was administered in the same manner to the treated groups. Animals having no lesions or skin and ear irritation were used.
After 4 hours of post-treatment, the mice were sacrificed through cervical fracture and a portion of 6 mm in diameter was obtained from each ear with a hollow punch which was weight in precision analytical balance. The difference in weight (Δ) between the right ear (treated) and the left ear (non treated) for each animal and for each group were calculated. The percentage of inhibition (% inh) was estimated and calculated according to the following equation: % inh = 100(1-Δt/Δc) [formula] wherein Δt represents the difference in the treated groups and Δc the difference for the […].
In order to analyze the results, an one way ANOVA and Dunnet test for multiple comparison was used, values of P<0.05 were considered significant. A software, Graphpad Instat Version 3.06, was used for such purposes.

[2] = biological target: T1, estrogen receptor alpha (ERα) (Homo sapiens, UniProt P03372); test: Estrogenicity reporter gene bioassay (luciferase activity) in MELN cells; type: cell-based
T1 construct: which endogenously express the estrogen receptor alpha (ERα); endogenous in cells; host or cells: MELN (MCF-7 stably transfected with ERE-βGlob-Luc-SV-Neo)
T1 sequence (P03372 1-595): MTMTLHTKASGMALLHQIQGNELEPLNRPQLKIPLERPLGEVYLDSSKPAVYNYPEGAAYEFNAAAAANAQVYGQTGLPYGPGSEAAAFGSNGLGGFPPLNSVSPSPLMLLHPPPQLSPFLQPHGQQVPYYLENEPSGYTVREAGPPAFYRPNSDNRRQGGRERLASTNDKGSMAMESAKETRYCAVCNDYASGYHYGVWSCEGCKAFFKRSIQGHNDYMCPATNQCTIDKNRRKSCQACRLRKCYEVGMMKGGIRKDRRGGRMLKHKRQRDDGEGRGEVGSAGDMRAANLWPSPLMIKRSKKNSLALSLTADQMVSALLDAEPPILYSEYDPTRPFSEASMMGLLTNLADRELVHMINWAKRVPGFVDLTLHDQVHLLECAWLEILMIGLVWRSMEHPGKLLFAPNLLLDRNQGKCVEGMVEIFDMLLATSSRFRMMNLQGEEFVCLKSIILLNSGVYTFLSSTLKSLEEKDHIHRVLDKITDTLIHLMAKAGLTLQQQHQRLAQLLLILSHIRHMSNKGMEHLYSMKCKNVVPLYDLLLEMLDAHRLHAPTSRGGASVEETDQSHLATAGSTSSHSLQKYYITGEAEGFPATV
Excerpt: Briefly, the transactivation bioassay (Reporter gene assay) used are based on the use of breast and uterine cancer cell lines transfected with different native or modified hormone receptors. The resulting cell lines further contain a reporter gene regulated by estrogens through the estrogen response element, the globin promoter and the luciferase gene.
MELN cells were obtained by means of transfecting the MCF-7 breast cancer cell line [which endogenously express the estrogen receptor alpha (ERα)] with an estrogen sensitive response element (ERE-βGlob-Luc-SV-Neo). The selection of clones resistant to geneticin was performed using a concentration of 1 mg/mL. The maintenance medium for this cell line is DMEM F12 (Dulbecco's modified Eagle medium) with phenol red supplemented with 10% FBS, 1% of penicillin/streptomycin and 1 mg/mL of geneticin. Due to the estrogenic activity of the phenol red and FBS, the experiments are preformed in medium known as experimental medium, i.e., a culture medium without phenol red and with FBS lacking of estrogens. The experimental medium for this line is DMEM without phenol red supplemented with 3% of FBS treated with carbon-dextran.
The cells were seeded at a density of 5x10^4 cells per well in white opaque 96 well plates in 150 µL of experimental medium. After 8 hours, the compounds to be assayed (p-nitrolophine and estradiol) were prepared (concentrated 4x) in the same medium and were added to each well (50 µl). The cells were incubated for 16 hours at 37°C. At the end of the incubation, the medium was removed and replaced with fresh medium containing […] luciferin [at that concentration, luciferin diffuses into cell producing a luminescent signal which is stable after 5 minutes and for at least 2 hours]. The plates were then introduced in the luminometer to measure the luminescence for 2 seconds. A YicroBeta Trilux luminometer (EGG Wallac) apparatus was used to detect luciferase activity.
The assays were preformed in quadruple for each concentration (0.01-10 µM) in at least three independent experiments. […] The values of luciferase activity obtained were analyzed using the one-way ANOVA statistic test. The differences were considered significant when P was less than […] (P < 0.05).

activity at 0.01 µM [2]: 15.2 ± 0.6%
activity at 0.03 µM [2]: 15.3 ± 0.5%
activity at 0.1 µM [2]: 15.6 ± 0.3%
activity at 0.3 µM [2]: 15.5 ± 0.9%
activity at 1 µM [2]: 16 ± 0.4%
activity at 3 µM [2]: 15.2 ± 0.4%
activity at 10 µM [2]: 15.6 ± 0.9%
estrogenicity ([2]; MELN cells, up to 10 µM, conclusion in words): not an estrogenic compound
SMILES: O=[N+]([O-])c1ccc(-c2nc(-c3ccccc3)c(-c3ccccc3)[nH]2)cc1 [p-nitrolophine, 2-(4-nitrophenyl)-4,5-diphenyl-1H-imidazole]
% inhibition ([1]; 4 hours): 100** (q = 9.5) %
Average (Δ = RE - LE) ([1]; Dose (mg/ear) 0.5, 4 hours): -0.13
% inhibition ([1]; Dose (mg/ear) 1, n=4, tendency, not statistically compared): ~90%
Average (Δ = RE - LE) ([1]; Dose (mg/ear) 1, n=4, 4 hours): 0.52
LE Average ([1]; 0.5 mg group, 4 hours): 6.7
LE Average ([1]; 1 mg group, 4 hours): 5.9
RE Average ([1]; 0.5 mg, 4 hours): 6.6
RE Average ([1]; 1 mg, 4 hours): 6.4
LE ([1]; 0.5 mg group, 4 hours, listed as 4-nitrolophine): 9.9 and 7.5 (2×) and 6.2 (2×) and 6.4 and 6.7 (2×) and 5.6 and 5.2 and 5.9 and 7.8 and 6
LE ([1]; 1 mg group, 4 hours, listed as 4-Nitrolophine): 5.6 and 5.8 and 5,5 and 6.6
RE ([1]; 0.5 mg, 4 hours, listed as 4-nitrolophine): 7.3 and 7 and 5.9 (2×) and 5.6 and 6.6 (2×) and 7.2 and 7.8 and 6.5 and 6 and 7.7 and 5.8
RE ([1]; 1 mg, 4 hours, listed as 4-Nitrolophine): 5.9 and 7.3 and 6.2 (2×)
